Experimental findings from patent US9725445B2, “Cycloalkyl nitrile pyrazolo pyridones as Janus kinase inhibitors” (Merck Sharp & Dohme Corp., priority 2013, dated 2017) are described below.

One assay concerns the target JAK1 (Homo sapiens (Human), UniProt P23458). Briefly: Jak biochemical HTRF assay, JAK1. Conditions: HTRF biochemical assay, recombinant GST-tagged catalytic domain; read-out: JAK1 IC50. On the technique in general: TR-FRET usually uses a lanthanide donor and a delayed reading to cut background.
Another assay concerns the target JAK2 (Homo sapiens (Human), UniProt O60674). Briefly: Jak biochemical HTRF assay, JAK2. Conditions: HTRF biochemical assay, recombinant GST-tagged catalytic domain; read-out: JAK2 IC50.

JAK1, sequence (P23458 875-1153): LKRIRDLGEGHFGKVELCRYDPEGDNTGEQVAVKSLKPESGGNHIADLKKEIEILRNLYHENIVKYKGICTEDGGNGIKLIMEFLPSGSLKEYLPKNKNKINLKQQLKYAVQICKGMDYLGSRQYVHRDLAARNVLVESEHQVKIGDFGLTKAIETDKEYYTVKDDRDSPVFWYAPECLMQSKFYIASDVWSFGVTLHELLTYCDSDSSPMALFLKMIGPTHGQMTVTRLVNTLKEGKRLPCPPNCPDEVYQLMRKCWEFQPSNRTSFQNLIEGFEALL
JAK2, sequence (O60674 849-1124): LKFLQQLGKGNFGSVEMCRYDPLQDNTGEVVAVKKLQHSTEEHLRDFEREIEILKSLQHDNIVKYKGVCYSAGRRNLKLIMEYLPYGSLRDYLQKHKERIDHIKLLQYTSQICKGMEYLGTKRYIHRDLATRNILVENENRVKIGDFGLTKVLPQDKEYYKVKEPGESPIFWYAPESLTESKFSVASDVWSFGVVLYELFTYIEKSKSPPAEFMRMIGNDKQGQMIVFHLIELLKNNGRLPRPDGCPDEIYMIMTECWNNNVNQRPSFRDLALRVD

Turning to `N#C[C@H]1C[C@@H](N2CCC2)CC[C@@H]1n1nc(Nc2ccc(OC(F)(F)F)cc2)c2c(=O)[nH]ccc21` [Example 5-24, (1S,2S,5S)-5-(azetidin-1-yl)-2-(4-oxo-3-((4-(trifluoromethoxy)phenyl)amino)-4,5-dihydro-1H-pyrazolo[4,3-c]pyridin-1-yl)cyclohexanecarbonitrile], the half-inhibitory concentration (IC50) at JAK1 turned out to be 0.88 nM; at JAK2, 31 nM.
The matching figures for `CN(C)[C@@H]1CC[C@H](n2nc(Nc3ccc(OC(F)(F)F)cc3)c3c(=O)[nH]ccc32)[C@@H](C#N)C1` [Example 5-25, (1S,2S,5R)-5-(dimethylamino)-2-(4-oxo-3-((4-(trifluoromethoxy)phenyl)amino)-4,5-dihydro-1H-pyrazolo[4,3-c]pyridin-1-yl)cyclohexanecarbonitrile]: 0.96 nM and 22 nM.
The matching figures for `CN(C)[C@H]1CC[C@H](n2nc(Nc3ccc(OC(F)(F)F)cc3)c3c(=O)[nH]ccc32)[C@@H](C#N)C1` [Example 5-26, (1S,2S,5S)-5-(dimethylamino)-2-(4-oxo-3-((4-(trifluoromethoxy)phenyl)amino)-4,5-dihydro-1H-pyrazolo[4,3-c]pyridin-1-yl)cyclohexanecarbonitrile]: 0.33 nM and 7 nM.
On the same counts, the results for `C[C@H](N[C@@H]1CC[C@H](n2nc(Nc3ccc(OC(F)(F)F)cc3)c3c(=O)[nH]ccc32)[C@@H](C#N)C1)C1CC1` [Example 5-27, (1S,2S,5R)-5-(((S)-1-cyclopropylethyl)amino)-2-(4-oxo-3-((4-(trifluoromethoxy)phenyl)amino)-4,5-dihydro-1H-pyrazolo[4,3-c]pyridin-1-yl)cyclohexanecarbonitrile] are 3.7 nM and 233 nM.
Take `C[C@H](N[C@H]1CC[C@H](n2nc(Nc3ccc(OC(F)(F)F)cc3)c3c(=O)[nH]ccc32)[C@@H](C#N)C1)C1CC1` [Example 5-28, (1S,2S,5S)-5-(((S)-1-cyclopropylethyl)amino)-2-(4-oxo-3-((4-(trifluoromethoxy)phenyl)amino)-4,5-dihydro-1H-pyrazolo[4,3-c]pyridin-1-yl)cyclohexanecarbonitrile]: the IC50 on JAK1 amounted to 0.5 nM; on JAK2 it was 37 nM.
On to `N#C[C@H]1CCCC[C@@H]1n1nc(Nc2ccc(F)c(CN)c2)c2c(=O)[nH]ccc21` [Example 6-2, (1S,2S)-2-(3-((3-(aminomethyl)-4-fluorophenyl)amino)-4-oxo-4,5-dihydro-1H-pyrazolo[4,3-c]pyridin-1-yl)cyclohexanecarbonitrile], for which the IC50 was 0.75 nM at JAK1 and 2.3 nM at JAK2.
The matching figures for `N#C[C@H]1CCCC[C@@H]1n1nc(Nc2cc(F)cc(CN)c2)c2c(=O)[nH]ccc21` [Example 6-3, (1S,2S)-2-(3-((3-(aminomethyl)-5-fluorophenyl)amino)-4-oxo-4,5-dihydro-1H-pyrazolo[4,3-c]pyridin-1-yl)cyclohexanecarbonitrile]: 1.4 nM and 2.3 nM.
On the same counts, the results for `CS(=O)(=O)c1ccc(Nc2nn([C@H]3CCCC[C@@H]3C#N)c3cc[nH]c(=O)c23)cc1CN` [Example 6-4, (1S,2S)-2-(3-((3-(aminomethyl)-4-(methylsulfonyl)phenyl)amino)-4-oxo-4,5-dihydro-1H-pyrazolo[4,3-c]pyridin-1-yl)cyclohexanecarbonitrile] are 1 nM and 2.9 nM.
Consider `N#C[C@H]1CCCC[C@@H]1n1nc(Nc2ccc(CN)cc2)c2c(=O)[nH]ccc21` [Example 6-5, (1S,2S)-2-(3-((4-(aminomethyl)phenyl)amino)-4-oxo-4,5-dihydro-1H-pyrazolo[4,3-c]pyridin-1-yl)cyclohexanecarbonitrile], for which the IC50 at JAK1 stood at 0.46 nM; at JAK2 it was 0.82 nM.
Turning to `N#C[C@H]1CCCC[C@@H]1n1nc(Nc2cccc([C@H](N)C(F)(F)F)c2)c2c(=O)[nH]ccc21` [Example 7-1, (1S,2S)-2-(3-((3-((S)-1-Amino-2,2,2-trifluoroethyl)phenyl)amino)-4-oxo-4,5-dihydro-H-pyrazolo[4,3-c]pyridin-1-yl)cyclohexanecarbonitrileecarbonitrile], the IC50 on JAK1 stood at 0.61 nM; at JAK2 it was 1.5 nM.
`N#C[C@H]1CCCC[C@@H]1n1nc(Nc2cccc([C@@H](N)C(F)(F)F)c2)c2c(=O)[nH]ccc21` [Example 7-2, (1S,2S)-2-[3-({3-[(1R)-1-amino-2,2,2-trifluoroethyl]phenyl}amino)-4-oxo-4,5-dihydro-1H-pyrazolo[4,3-c]pyridin-1-yl]cyclohexanecarbonitrile]: the IC50 was 0.26 nM on JAK1 and 2.2 nM at JAK2.
The matching figures for `N#C[C@H]1CCCC[C@@H]1n1nc(Nc2ccc([C@@H](N)C(F)(F)F)cc2)c2c(=O)[nH]ccc21` [Example 7-3, (1S,2S)-2-[3-({4-[(1R)-1-amino-2,2,2-trifluoroethyl]phenyl}amino)-4-oxo-4,5-dihydro-1H-pyrazolo[4,3-c]pyridin-1-yl]cyclohexanecarbonitrile]: 0.12 nM and 0.37 nM.
On the same counts, the results for `N#C[C@H]1CCCC[C@@H]1n1nc(Nc2ccc([C@H](N)C(F)(F)F)cc2)c2c(=O)[nH]ccc21` [Example 7-4, (1S,2S)-2-[3-({4-[(1S)-1-amino-2,2,2-trifluoroethyl]phenyl}amino)-4-oxo-4,5-dihydro-1H-pyrazolo[4,3-c]pyridin-1-yl]cyclohexanecarbonitrile] are 0.11 nM and 0.41 nM.
On the same counts, the results for `CC(O)(CO)c1cccc(Nc2nn([C@H]3CCCC[C@@H]3C#N)c3cc[nH]c(=O)c23)c1` (stereo partly drawn) [Example 11-1, (1S,2S)-2-(3-((3-(1,2-Dihydroxypropan-2-yl)phenyl)amino)-4-oxo-4,5-dihydro-1H-pyrazolo[4,3-c]pyridin-1-yl)cyclohexanecarbonitrile] are 2.5 nM and 4 nM.
For `N#C[C@H]1CCCC[C@@H]1n1nc(Nc2ccc3c(c2)CNC3)c2c(=O)[nH]ccc21` [Example 12-1, (1S,2S)-2-(3-(Isoindolin-5-ylamino)-4-oxo-4,5-dihydro-H-pyrazolo[4,3-c]pyridin-1-yl)cyclohexanecarbonitrile], the IC50 was determined as 0.31 nM at JAK1 and 0.86 nM on JAK2.
Consider `N#C[C@H]1CCCC[C@@H]1n1nc(Nc2ccc(C3(N)CCC3)cc2)c2c(=O)[nH]ccc21` [Example 12-2, (1S,2S)-2-(3-((4-(1-aminocyclobutyl)phenyl)amino)-4-oxo-4,5-dihydro-1H-pyrazolo[4,3-c]pyridin-1-yl)cyclohexanecarbonitrile], for which the IC50 on JAK1 turned out to be 0.36 nM; on JAK2, 0.32 nM.
The matching figures for `N#C[C@H]1CCCC[C@@H]1n1nc(Nc2ccc3c(c2)CC(C(=O)O)C3)c2c(=O)[nH]ccc21` (stereo partly drawn) [Example 13-1, 5-((1-((1S,2S)-2-Cyanocyclohexyl)-4-oxo-4,5-dihydro-1H-pyrazolo[4,3-c]pyridin-3-yl)amino)-2,3-dihydro-1H-indene-2-carboxylic acid]: 0.47 nM and 3.4 nM.
On the same counts, the results for `N#C[C@H]1CCCC[C@@H]1n1nc(Nc2ccc(-c3ncco3)cc2)c2c(=O)[nH]ccc21` [Example 15-1, (1S,2S)-2-(3-{[4-(1,3-Oxazol-2-yl)phenyl]amino}-4-oxo-4,5-dihydro-1H-pyrazolo[4,3-c]pyridin-1-yl)cyclohexanecarbonitrile] are 0.13 nM and 1.9 nM.
The matching figures for `N#C[C@H]1CCCC[C@@H]1n1nc(Nc2ccc(-c3nccs3)cc2)c2c(=O)[nH]ccc21` [Example 15-2, (1S,2S)-2-(4-oxo-3-{[4-(1,3-thiazol-2-yl)phenyl]amino}-4,5-dihydro-1H-pyrazolo[4,3-c]pyridin-1-yl)cyclohexanecarbonitrile]: 0.26 nM and 3.6 nM.
Consider `N#C[C@H]1CCCC[C@@H]1n1nc(Nc2ccc(-c3ncon3)cc2)c2c(=O)[nH]ccc21` [Example 15-3, (1S,2S)-2-(3-{[4-(1,2,4-oxadiazol-3-yl)phenyl]amino}-4-oxo-4,5-dihydro-1H-pyrazolo[4,3-c]pyridin-1-yl)cyclohexanecarbonitrile], for which the IC50 on JAK1 is 0.51 nM; at JAK2, 3.6 nM.
The matching figures for `N#C[C@H]1CCCC[C@@H]1n1nc(Nc2ccc(-c3ccno3)cc2)c2c(=O)[nH]ccc21` [Example 15-5, (1S,2S)-2-{3-[(4-isoxazol-5-ylphenyl)amino]-4-oxo-4,5-dihydro-1H-pyrazolo[4,3-c]pyridin-1-yl}cyclohexanecarbonitrile]: 0.32 nM and 3.2 nM.
On the same counts, the results for `N#C[C@H]1CCCC[C@@H]1n1nc(Nc2ccc(-c3ncno3)cc2)c2c(=O)[nH]ccc21` [Example 15-6, (1S,2S)-2-(3-{[4-(1,2,4-oxadiazol-5-yl)phenyl]amino}-4-oxo-4,5-dihydro-1H-pyrazolo[4,3-c]pyridin-1-yl)cyclohexanecarbonitrile] are 0.55 nM and 3.6 nM.
The matching figures for `CC1(C)C(=O)Nc2cc(Nc3nn([C@H]4CCCC[C@@H]4C#N)c4cc[nH]c(=O)c34)ccc21` [Example 15-7, (1S,2S)-2-{3-[(3,3-dimethyl-2-oxo-2,3-dihydro-1H-indol-6-yl)amino]-4-oxo-4,5-dihydro-1H-pyrazolo[4,3-c]pyridin-1-yl}cyclohexanecarbonitrile]: 0.11 nM and 1.4 nM.
In the case of `N#C[C@H]1CCCC[C@@H]1n1nc(Nc2ccc(-c3cnco3)cc2)c2c(=O)[nH]ccc21` [Example 15-8, (1S,2S)-2-(3-{[4-(1,3-oxazol-5-yl)phenyl]amino}-4-oxo-4,5-dihydro-1H-pyrazolo[4,3-c]pyridin-1-yl)cyclohexanecarbonitrile], the IC50 at JAK1 was found to be 0.14 nM; on JAK2, 0.27 nM.
The matching figures for `N#C[C@H]1CCCC[C@@H]1n1nc(Nc2ccc(C3(O)COC3)cc2)c2c(=O)[nH]ccc21` [Example 15-9, (1S,2S)-2-(3-{[4-(3-hydroxyoxetan-3-yl)phenyl]amino}-4-oxo-4,5-dihydro-1H-pyrazolo[4,3-c]pyridin-1-yl)cyclohexanecarbonitrile]: 0.32 nM and 1.1 nM.

What is called IC50 is the concentration that gives 50% inhibition.
